Experimental data: patent publication US8114840B2, “Medicament containing activated antithrombin III” (Hamburger Stiftung zur Forderung Von Wissenschaft und Kultur, priority 2000, dated 2012)

Tests used:
thrombocytes [1] = assay: Adhesion of thrombocytes to adhesion proteins (microtitre plate, hexosaminidase); assay type: cell-based; conditions: for inhibition of IDAAT-mediated adhesion of thrombocytes to collagen / inhibition of IDAAT-mediated adhesion of thrombocytes to thrombospondin (immobilized TSP-1): EDTA 5 mM; for inhibition of IDAAT-mediated adhesion of thrombocytes to thrombospondin (immobilized TSP-1): integrins 5 μg/ml, Wortmannin 20 nM, LY294002 50 μm, clone 37 with Fc receptor blocked by IV.3; for inhibition of IDAAT-mediated adhesion: Heparan sulfate 0-10 μg/ml, sulfatide 0-20 μg/ml
Protocol: The adhesion of thrombocytes was carried out according to Santoro et al, 1994. […] Non-adhering thrombocytes were thoroughly washed out. The number of adhering platelets was determined by lysing the platelets with Triton X-100 and determining the lysosomal enzyme hexosaminidase. In order to calibrate the adhesion assay a calibration series containing a known and increasing number of platelets was added to the microtitre plate and the absorbance of the reacted substrate p-nitrophenyl-N-acetyl-β-glucosaminide was determined in relation to the number of platelets.

TNF α = TNF α secretion of monocytes activated with S. aureus and interferon γ (ELISA); assay type: cell-based; conditions: substance alone
Protocol: FIG. 9: The IL-10 secretion of monocytes activated with S. aureus and interferon γ is increased by IDAAT. Thus IDAAT promotes the secretion of an interleukin which protects against LPS-induced lethality in animal experiments. The method used was carried out analogously to FIG. 8. IL-10 was determined by means of an ELISA. FIG. 10 (sequence in the figure title: SEQ ID NO:2): The TNF α secretion of monocytes activated with S. aureus and interferon γ is inhibited by the TSP-1 peptide […] NO: 2) (10a). […] TNF α was determined by means of an ELISA. The method used was carried out analogously to FIG. 8. FIG. 11: IDAAT inhibits the Arthus reaction in the ear of Balb-C mice • a) Mouse treated twice intraperitoneally at time 0 and 0+3 hours with 50 μg IDAAT each time. Arthus reaction in the left ear • b) Mouse treated intraperitoneally twice with control buffer. Arthus reaction in the left ear • c) BSA-FITC incorporated into the ears as a measure for the Arthus reaction in mice treated with IDAAT or control buffer. Arthus reaction in the left ear. FIG. 12: • a) dot plot of the thrombocyte-bacterial association • A: thrombocytes labelled with PE-conjugated anti-GPIX antibody (Beb 1) • B: bacteria (S. aureus) labelled with Syto 13 • C: bacteria-thrombocyte associates emitting both fluorescences • b) S. aureus (Cowan 1)-thrombocyte associates

monocytes = assay: TSP-1 binding to monocytes, flow cytometry with anti-TSP antibody clone P10-PE; assay type: cell-based, human; conditions: 10 μg/ml purified TSP-1, without IDAAT; ~1% without additions
Protocol: Whereas without the addition of purified TSP-1 and without the addition of IDAAT only ˜1% of eluted human monocytes could be detected in a flow cytometer by an antibody (clone P10) which recognizes TSP-1 on the cell surface, the number increases to ca. 5% by adding 10 μg/ml purified TSP-1.
(§1) Apoptotic PMNL were incubated for 30 minutes with Hepes-Tyrode buffer pH 7.4, washed, labelled with the anti-TSP antibody P10-PE and the fluorescence of 3000 cells was measured in a flow cytometer • b) PMNL were made apoptotic by incubation in a cell culture medium for 24 hours in an incubator according to Savill et al., 1992. Apoptotic PMNL were incubated for 30 minutes with TSP-1 (5 μg/ml) and IDAAT (10 μg/ml) in Hepes-Tyrode buffer pH 7.4, washed, labelled with the TSP antibody P10-PE and the fluorescence of 3000 cells was measured in a flow cytometer. • c) Procedure as in a and b: IDAAT was used at increasing concentrations, IDAAT mediates the binding of thrombospondin (10 μg/ml) that was either present endogenously or added exogenously. FIG. 3: IDAAT cross-links apoptotic PMNL with monocytes by means of TSP Eluted PMNL and eluted monocytes were incubated together for 30 minutes at room temperature with TSP and IDAAT at various concentrations and the cells were fixed. […] PE and FITC positive associates were measured using a flow cytometer. […]

[2] = tested on: S. aureus binding to thrombocytes; assay: S. aureus-thrombocyte associate formation, flow cytometry; assay type: cell-based
Protocol: Thrombocytes were labelled with a thrombocyte-specific phycoerythrin-conjugated anti-GPIX antibody (clone Beb 1). Bacteria (various S. aureus strains) were adjusted with Tris-buffered saline solution (TBS) to a number of 250,000 microorganisms/μl and labelled with the RNA-dye Syto 13 [MoBiTec, Göttingen] at a concentration of 2 μM. Labelled bacteria and labelled thrombocytes were co-incubated for 10 minutes at a ratio of 10:1.
The cell population were analysed in a flow cytometer. Cells that were positive for both fluorochromes were classified as associates (see FIG. 12a). Thrombin stimulation and release of TSP from the α-granula of the platelets increased the percentage of platelets carrying bacteria by 2.5-fold relative to the total number of thrombocytes.

[3] = tested on: monocytes through a HMEC-1 monolayer; assay: Transmigration of monocytes through endothelium (Transwell); assay type: cell-based, human; conditions: purified TSP 25 μg/ml
Protocol: Transmigration experiments were carried out as described by Kielbassa et al., 1998. The addition of IDAAT to the culture medium of the monocytes during a transmigration experiment stimulates dose-dependently the transmigration of monocytes through the endothelium by 2-3-fold (see FIG. 4).
as §1, with “exogenously.” for “exogenously. FIG. 3: IDAAT cross-links apoptotic PMNL with monocytes by means of TSP Eluted PMNL and eluted monocytes were incubated together for 30 minutes at room temperature with TSP and IDAAT at various concentrations and the cells were fixed.”
After a 4 hour transmigration period, the inserts were carefully removed, the cell culture plate was placed for 30 min on ice in order to detach the adhered monocytes and the number of transmigrated monocytes was counted.

thrombocytes [4] = assay: Thrombocyte aggregation according to Born; assay type: cell-based; conditions: purified thrombospondin 25 μg/ml alone
Protocol: Gel-filtered platelets (200,000/μl) in Hepes-Tyrode buffer pH 7.4 containing fibrinogen (100 μg/ml) were examined in an aggregometer according to Born.
The method used was elucidated in detail in the description of the example. FIG. 21: The addition of monocytes (100/μl) to thrombocytes (300,000/μl) increases the adhesion of thrombocytes to TSP-1, whereas the addition of erythrocytes (20,000/μl) has an inhibitory effect. The method used was elucidated in detail in the description of the example. FIG. 22: The IDAAT-induced thrombocyte adhesion was inhibited by the inhibitors of PI-3 kinase Wortmannin (20 nM) and LY294002 (50 μm). For this purpose Wortmannin and LY294002 were preincubated for 10 minutes before adding IDAAT. FIG. 23: IDAAT mediates thrombospondin-mediated thrombocyte aggregation Thrombocyte aggregation was carded out according to Born 1962. TSP-1 (25 μg/ml) was pipetted into an aggregation-cuvette containing gel-filtered platelets (200,000/μl) in Hepes-Tyrode buffer pH 7.4 containing 100 μg/ml fibrinogen. […] Addition of IDAAT led to a weak aggregation reaction Simultaneous addition of IDAAT and soluble TSP-1 led to a pronounced aggregation. FIG. 24: IDAAT mediates the microparticle formation of thrombocytes

O=C(O)CN(CCN(CC(=O)O)CC(=O)O)CC(=O)O [EDTA]
inhibition of IDAAT-mediated adhesion of thrombocytes to collagen (thrombocytes [1]): completely inhibits
inhibition of IDAAT-mediated adhesion of thrombocytes to thrombospondin (immobilized TSP-1) (thrombocytes [1]): completely inhibits

Heparan sulfate
inhibition of IDAAT-mediated adhesion (thrombocytes [1]): do not inhibit

RFYVVMWK (listed as Homo sapiens) [TSP-1 peptide RFYVVMWK]
release/secretion of TNF α (TNF α): inhibited

TSP-1: thrombospondin-1, trimeric modular glycoprotein purified from human thrombocytes
TSP-1 positive monocytes (monocytes): ca. 5%
S. aureus (Cowan-1)-thrombocyte associates ([2]; TSP-1 added in addition to IDAAT): further increase in the number of associates
transmigration of monocytes [3]: stimulates the transmigration
thrombocyte aggregation (thrombocytes [4]): no aggregation
inhibition of IDAAT-mediated adhesion of thrombocytes to collagen (thrombocytes [1]): inhibits
inhibition of IDAAT-mediated adhesion of thrombocytes to thrombospondin (immobilized TSP-1) (thrombocytes [1]): inhibits
adhesion of thrombocytes to collagen (thrombocytes [1]; FIG. 20, dose dependence): dose-dependently inhibits

Thrombin [reference compound]
increase of percentage of platelets carrying bacteria ([2]; thrombin stimulation, release of TSP from α-granula): 2.5 fold

sulfatide
inhibition of IDAAT-mediated adhesion (thrombocytes [1]): do not inhibit
